According to patent US5688769A, “Treatment method” (Uclaf; Roussel, priority 1979, dated 1997):

Legend:
[1] = tested on: testicular steriodogenosis; test: Inhibitory activity on testicular steroidogenesis in a patient with prostate cancer; format: in vivo, human; details: intranasal 500 μg twice a day
From the text: The results are reported in the graphs of sheet 2 of the Figures.

[2] = tested on: testicular steroidogensis; test: Inhibitory activity against testicular steroidogenesis in men in good health, single intranasal dose; format: in vivo; details: human, single intranasal dose 500 μg
Procedure: The said product was administered intranasally at a dose of 500 μg in a few drops of distilled water at 8 A.M. on the third day of the test. For 2 days prior to the treatment and for 6 days after the treatment, samples of blood were taken daily at 8 A.M., 3 P.M. and 10 P.M. On the day of administration of the LH-RH agonist, blood samples were taken at 11 A.M. and 6 P.M.
The seric concentrations of LH and FSH were measured by radioimmuno-logic dosages with double antibodies and the antibodies for measuring LH and FSH were furnished by the National Pituitary Agency of N.I.H. in Bethesda, Md. The seric concentrations of steroids was measured by radioimmuno-logic dosages in which one ml of serum was extracted with ether and the steroids were separated on a LH-20 column before measuring with radioimmuno-logic dosages. The radioimmuno-logic dosage results were determined by a program derived from model II of Rodbard et al [Second Karolinska Symposium on Research Methods in Reproductive Endocrinology, Diezfalusky Editor, Copenhague (1970), p. 79-103]. The statistical significance was determined by the "multiple level test" of Duncan-Kramer [Kramer, Biometrics, Vol 12 (1956), p. 307]. The results are shown in the FIGS. 1A to 1H filed herewith.

ovarian steroidogenosis = test: Inhibitory activity on ovarian steroidogenesis in women; format: in vivo; details: for reduction of seric levels of progesterone as compared to the controls: typical subject (FIGS. 3A-3D)
Procedure: The inhibitory activity of D Ser (Tbu)^6 or Gly^10 LH-RH ethylamide on ovarian steroidogenosis in women was determined on 6 women aged 26 to 35 years with normal and regular menstrual cycles and without prior endocrinal or gynecological problems. […] […] Daily blood samples were taken between 4 and 6 P.M. to measure seric levels of LH, FSH, progesterone and estradiol which were determined by radioimmuno-logic tests with double antibodies. The antibodies to measure LH and FSH were furnished by the National Pituitory Agency of N.I.H. of Bethesda, Md.
Estradiol and progesterone were measured with highly specific antibodies developed against 7-(O-carboxymethyl)-oxime of estradiol and 12-(O-carboxymethyl)-oxime of progesterone, respectively [3H] 17β-estradiol and ^125 I-progesterone-12-[0-carboxymethyl)-oxime]used as tracers. The serum was extracted with benzene and the steroids were separated with a LH 20 column before the determination. The radioimmunological results were exploited by the program derived from model II of Rodbard and Lewald as in Example 1 and the statistical significance was measured by the multiple level test of Ducan-Kramer of Example 1. The results are shown in the graphs of sheets 1 to 16 of the Figures.

CCNC(=O)[C@@H]1CCCN1C(=O)[C@H](CCCNC(=N)N)NC(=O)[C@H](CC(C)C)NC(=O)[C@@H](COC(C)(C)C)NC(=O)[C@H](Cc1ccc(O)cc1)NC(=O)[C@H](CO)NC(=O)[C@H](Cc1c[nH]c2ccccc12)NC(=O)[C@H](Cc1c[nH]cn1)NC(=O)[C@@H]1CCC(=O)N1 [D Ser (Tbu)^6 of Gly^10 LH-RH ethylamide]
androgenic steroids, plasmatic level [1]: diminution
level of testosterone ([1]; two weeks of treatment): stabilized at a very low level
duration of the lessening of cyclicity and drop of seric levels of testicular steroids [2]: 3 days
level of seric progesterone, course (ovarian steroidogenosis; 2 cycles of treatment (FIGS. 4A-4F)): accelerated diminution
level of progesterone, % of control values (pretreatment cycles = 100%) (ovarian steroidogenosis; 12 cycles of post-treatment): 99%
level of progesterone, % of control values (pretreatment cycles = 100%) (ovarian steroidogenosis; 12 cycles of treatment): 46%
level of progesterone reduced as compared to the controls (ovarian steroidogenosis; all 12 treatment cycles (FIGS. 5A-5L), scale 13 to 127%): 46%
reduction of seric levels of progesterone as compared to the controls (ovarian steroidogenosis; first of the 2 cycles of treatment, intranasal 500 μg at 8 A.M. and 5 P.M. of one day): 13%
reduction of seric levels of progesterone as compared to the controls (ovarian steroidogenosis; second of the 2 cycles of treatment): 34%
